The values below come from paper PMC12386606, “Evaluation of the In Vitro Blood–Brain Barrier Transport of Ferula persica L. Bioactive Compounds” (International Journal of Molecular Sciences, 2025).

Where two headings read alike, the source gives them in different places.

For one series, the system named is SH-SY5Y cells. Kind of series: Neuroprotection against H2O2, L-glutamate and Aβ1-42 in differentiated SH-SY5Y cells (MTT). The note with it: 24 h.
For series [1] the following is noted: oil/water partition coefficient; Table 1; ref PubChem; cited from earlier work.
The conditions of series [2]: PAMPA. In general terms: In PAMPA a lipid-coated filter parts donor from acceptor wells.
Experimental: (§1) The permeability of bioactive compounds from AerExt and RootExt across the BBB was assessed using the PAMPA-BBB assay, following the methodology described by [11]. Firstly, the BBB solution was prepared by dissolving 8 mg of PBL and 4 mg of cholesterol in 600 μL of n-dodecane. The initial donor solution was prepared by mixing 1 mL of AerExt or RootExt (at 10 mg mL^−1 in EtOH) with 1 mL of buffer (PBS, pH = 7.4, 10 mM). The filter membrane of the donor plate was coated with 5 μL of BBB solution. The acceptor plate was filled with 350 μL of buffer, and the donor plate was carefully placed on top of the acceptor plate to form a “sandwich-like” assembly. Subsequently, 350 μL of the donor solution was added to the donor plate, which was then covered and incubated at 37 °C for 4 h in the dark. After the incubation time, 300 μL of the solution was collected from each plate, transferred into separate vials, and evaporated using a SpeedVac system at 40 °C under 13 mbar pressure. The dried acceptor and donor solutions were dissolved in 50 μL of pure EtOH before being subjected to HPLC-Q-TOF-MS/MS and GC-Q-TOF-MS analysis. Permeability (Pe) across the PAMPA-BBB of the bioactive compound was calculated according to Equation (1) [54], with modifications in concentration rates.Pe = −ln[1 − CA(t)/Cequilibrium]/(A × (1/VD + 1/VA) × t)(1)
(§2) Cequilibrium was calculated according to Equation (2):Cequilibrium = [CD(t) × VD + CA(t) × VA]/(VD + VA)(2)
(§3) The HPLC-MS and GC-MS chromatograms were processed using the Agilent Mass Hunter Qualitative software (version B.10.0) to verify the retention time and exact mass of the compounds previously reported by us [25] and to extract their peak area to calculate the BBB permeability.
The next series deals with HBMEC cells. Kind of series: Blood–brain barrier transport study in HBMEC Transwell monolayer. Particulars: for AerExt Te (%) ± SD 2 h / AerExt Te (%) ± SD 4 h / AerExt Te (%) ± SD 24 h: AerExt 40 µg mL^−1 apical; for AerExt Te (%) ± SD 2 h / AerExt Te (%) ± SD 4 h / AerExt Te (%) ± SD 24 h / RootExt Te (%) ± SD 2 h / RootExt Te (%) ± SD 4 h / RootExt Te (%) ± SD 24 h: n.q. = not quantified in the basolateral compartment; for RootExt Te (%) ± SD 2 h / RootExt Te (%) ± SD 4 h / RootExt Te (%) ± SD 24 h: RootExt 20 µg mL^−1 apical.

Series [3] is described as follows: Parallel artificial membrane permeability assay for the blood–brain barrier (PAMPA-BBB). The note with it: for AerExt log Pe: compound within AerExt donor solution; for AerExt log Pe / RootExt log Pe: 37 °C, 4 h, PBS pH 7.4, n.q. = not quantified in the acceptor plate; for RootExt log Pe: compound within RootExt donor solution.
Experimental: as §1, §2, §3

Experimental for HBMEC cells: After the toxicity evaluation, the HBMEC cell line was also used as a simplified in vitro model of the BBB endothelium. Cells were seeded at a density of 1.6 × 10^5 cells/cm^2 in 12-well Transwell® plates (Corning Costar Corp., Corning, USA) with a pore diameter of 0.4 μm, pre-coated with type I rat tail collagen (100 μg mL^−1) [55]. The culture medium was renewed every 2 days until a monolayer cell structure was formed (see Supplementary Figure S2), and transport experiments were initiated after 10 days. In transport experiments, the medium in the apical (upper) compartment of the Transwell system was removed, and 0.5 mL of AerExt or RootExt at a concentration of 40 μg mL^−1 and 20 μg mL^−1, respectively, was added to these compartments (applied in duplicate). Also, a medium containing 0.4% (v/v) ethanol was used as control group. The basolateral (lower) compartments were filled with 1.5 mL of fresh culture medium. The cells were incubated under these conditions for 2, 4, and 24 h.
At the end of the incubation periods, media samples were collected from both chambers and lyophilized using a freeze-drying system from Martin Christ (Osterode am Harz, Germany). The samples were stored at −80 °C until analysis. The collected samples were subjected to chemical analyses to evaluate the ability of bioactive compounds contained in the extracts to pass through the cell monolayer.
The transport efficiency (Te) of bioactive substances was calculated based on Equation (3), described by [56]:Te (%) = CLower/CUpper × 100(3)
This calculation was performed to understand whether the compound crosses the cell layer and how efficiently it is transported.
For this purpose, 0.2 mL of cold water (H2O) was added to the samples, and the samples were vortexed for 10 s. Then, 0.8 mL of cold methanol was added and vortexed again for 10 s. Then, the mixture was centrifuged at 14,000 rpm for 5 min, and the supernatant was carefully transferred to a 1.5 mL Eppendorf tube and dried in a SpeedVac device at 40 °C and 13 bar pressure. Finally, the dried samples were resuspended in 25 μL of pure ethanol for their subsequent analysis.
For HPLC-Q-TOF MS/MS analysis, aliquots of 2 μL were injected into an HPLC model 1290 coupled to a Q-TOF series 6540 (Agilent Technologies, Waldbronn, Germany). For GC-Q-TOF MS analysis, aliquots of 1 μL were injected with a split ratio of 1:10 into a GC model 7890B coupled to a Q-TOF series 7200 (Agilent Technologies, Waldbronn, Germany). The HPLC-MS and GC-MS chromatograms were processed using the Agilent Mass Hunter Qualitative software (version B.10.0) to verify the retention time and exact mass of the compounds previously reported by us [25] and to extract their peak area to calculate the BBB permeability.
Experimental for SH-SY5Y cells: To investigate the neuroprotective potential of AerExt or RootExt, oxidative damage (H2O2), excitotoxic stress (L-glutamate), and Aβ1-42 toxicity were induced in cells and evaluated as described by [58]. Briefly, SH-SY5Y cells were plated as described above, and 24 h after cell attachment, cells were pre-treated with non-toxic concentrations of AerExt or RootExt (40 μg mL^−1 for AerExt; 20 μg mL^−1 for RootExt) for 24 h. In the control group, DMEM/F12 cell medium supplemented with 1% FBS, 100 U mL^−1 penicillin, 100 μg mL^−1 streptomycin, 250 ng mL^−1 antimycotic, and 0.4% ethanol was used. The next day, cells were incubated with either cell medium alone (control), H2O2 (65 μM), L-glutamate (23 mM), or Aβ1-42 (30 μM) for 24 h. Cell viability was assessed by MTT assay at the end of the experiments. All the experiments were repeated three times, and a T-test was applied between the treated and control conditions considering statistically significant differences when p < 0.05.

Take `OO` [H2O2]: the “cell viability after neurotoxic agent, compared with control” value in the series with SH-SY5Y cells (H2O2 65 µM) stood at 48%.

`Cc1nccc2c1[nH]c1ccccc12` [Harman]: the log p in series [1] is 3.6. Moreover, the “AerExt Cross BBB Potential” value in series [2] is listed as “++ (key: –: not quantified in acceptor; +: log Pe < −6.5; ++: −6.5 < log Pe < −5.5; +++: −5.5 < log Pe < −4.5)”.

For the compound `COc1ccc([C@@H]2CC(=O)c3c(O)cc(O[C@@H]4O[C@H](CO[C@@H]5O[C@@H](C)[C@H](O)[C@@H](O)[C@H]5O)[C@@H](O)[C@H](O)[C@H]4O)cc3O2)cc1O` [Hesperidin], in the series on HBMEC cells, the “AerExt Te (%) ± SD 2 h” value is on record as “n.q”, the “AerExt Te (%) ± SD 4 h” value was “n.q”, the “AerExt Te (%) ± SD 24 h” value was “n.q” and the “RootExt Te (%) ± SD 2 h” value is “n.q”. In the series with HBMEC cells, the “RootExt Te (%) ± SD 4 h” value is “n.q” and the “RootExt Te (%) ± SD 24 h” value was “n.q”. Also, in series [1], the log p is −1.1. Also, in series [3], the “AerExt log Pe” value was “n.q” and the “RootExt log Pe” value was “n.q”.

`COc1c(O)cc2oc(-c3ccc(O[C@@H]4O[C@H](CO)[C@@H](O)[C@H](O)[C@H]4O)cc3)cc(=O)c2c1O` [Hispidulin 4′-glucoside]: the “AerExt Cross BBB Potential” value in series [2] is given as “+ (key: –: not quantified in acceptor; +: log Pe < −6.5; ++: −6.5 < log Pe < −5.5; +++: −5.5 < log Pe < −4.5)”. The “AerExt log Pe” value in series [2] (pH 7.4) is on record as −6.14.

On to `N[C@@H](CCC(=O)O)C(=O)O` [L-glutamate], for which the viability (as a rule, the share of living cells, or the viability signal relative to a control) at 23000 µM in the series with SH-SY5Y cells (Homo sapiens, read-out: cell viability after neurotoxic agent, compared with control) came to 47%.

For the compound `COc1ccc(-c2cc(=O)c3c(OC)c(OC)c(OC)c(OC)c3o2)cc1OC` [Nobiletin], in the series on HBMEC cells (AerExt 40 µg mL^−1 / RootExt 20 µg mL^−1, 2, 4, 24 h), the “crossing of the HBMEC-BBB” value is recorded as “could not cross the HBMEC-BBB”. In the series on HBMEC cells, the “AerExt Te (%) ± SD 2 h” value is on record as “n.q”, the “AerExt Te (%) ± SD 4 h” value was “n.q”, the “AerExt Te (%) ± SD 24 h” value was “n.q” and the “RootExt Te (%) ± SD 2 h” value is listed as “n.q”. In addition, in the series with HBMEC cells, the “RootExt Te (%) ± SD 4 h” value is listed as “n.q” and the “RootExt Te (%) ± SD 24 h” value was “n.q”. Further, the log p in series [1] is reported as 3.0. In addition, the Papp – broadly, a coefficient for how fast a substance crosses the barrier – at 4 h in series [3] (PAMPA, pH 7.4) was 49 ×10⁻⁶ cm/s.

`CC(C)[C@@H]1CC[C@@]2(C)[C@H](O)CC[C@](C)(O)[C@H]2[C@@H]1O[C@@H]1O[C@H](CO)[C@@H](O)[C@H](O)[C@H]1O` [Ophiopogonoside A]: in the series on HBMEC cells, the “RootExt Te (%) ± SD 2 h” value is given as “n.q”, the “RootExt Te (%) ± SD 4 h” value is given as “n.q” and the “RootExt Te (%) ± SD 24 h” value stood at 66.0 ± 3.2%. In addition, in series [1], the log p is reported as 0.4. In series [3], the “AerExt log Pe” value is listed as “n.q” and the “RootExt log Pe” value was “n.q”.

In the case of `COc1cc([C@@H]2OC[C@@H]3[C@H]2CO[C@H]3c2cc(OC)c(O[C@@H]3O[C@H](CO)[C@@H](O)[C@H](O)[C@H]3O)c(OC)c2)cc(OC)c1O[C@@H]1O[C@H](CO)[C@@H](O)[C@H](O)[C@H]1O` [Syringaresinol diglucoside], in the series on HBMEC cells, the “AerExt Te (%) ± SD 2 h” value is listed as “n.q”, the “AerExt Te (%) ± SD 4 h” value is listed as “n.q” and the “AerExt Te (%) ± SD 24 h” value is given as “n.q”. In addition, the log p in series [1] is given as −1.4. Further, in series [3], the “AerExt log Pe” value is recorded as “n.q” and the “RootExt log Pe” value is “n.q”.

`C/C=C\c1cc(OC)c(OC)cc1OC` [β-asarone]: in the series with HBMEC cells, the “AerExt Te (%) ± SD 2 h” value is on record as 7.5 ± 2.0%, the “AerExt Te (%) ± SD 4 h” value was 15.0 ± 7.3% and the “AerExt Te (%) ± SD 24 h” value stood at 15.5 ± 1.0%. In addition, the log p in series [1] is given as 3.0. For the same compound, the “RootExt log Pe” value in series [3] is listed as “n.q”.
